Test results taken from patent US20250270213A1, “PI3Ka INHIBITORS” (Synnovation Therapeutics, Inc., priority 2022, published 2025).

Test system: T47D (PIK3CA H1047R) cells
Assay: pS473 AKT assay with 2.5% FBS, T47D cells
Format: cell-based
Details: Homo sapiens, pSer473 AKT, DMEM with 2.5% FBS, 2 h treatment, read-out: T47D_IC50
In short: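 In-cell chemiluminescent ELISA of AKT Ser473 phosphorylation, using anti-pSer473 primary and HRP secondary antibodies on fixed cells. T47D (PIK3CA H1047R) cells had 2 h of compound treatment in DMEM containing 2.5% FBS; IC50 derived from dose-response.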

| IC50 [nM] | SMILES |
| --- | --- |
| < 1000 | [2H]C([2H])([2H])n1c(=O)c2cc(C)cc(C(C)Nc3ccc(Cl)nc3-c3cnn(C)c3)c2c2cnn(C3CCN(C(=O)C4(C#N)CC4)C3)c21 (centres unmarked) [Compound 157, 1-(3-(9-(1-((6-chloro-2-(1-methyl-1H-pyrazol-4-yl)pyridin-3-yl)amino)ethyl)-7-methyl-4-(methyl-d3)-5-oxo-4,5-dihydro-3H-pyrazolo[3,4-c]isoquinolin-3-yl)pyrrolidine-1-carbonyl)cyclopropane-1-carbonitrile] |
| < 1000 | Cc1cc(C(C)Nc2ccc(Cl)nc2-c2cnn(C)c2)c2c(c1)c(=O)n(C)c1c2cnn1C1CCN(C)CC1 (centres unmarked) [Compound 158, 9-(1-((6-Chloro-2-(1-methyl-1H-pyrazol-4-yl)pyridin-3-yl)amino)ethyl)-4,7-dimethyl-3-(1-methylpiperidin-4-yl)-3,4-dihydro-5H-pyrazolo[3,4-c]isoquinolin-5-one] |
| < 1000 | Cc1cc(C(C)Nc2ccc(Cl)nc2-c2ncn(C)n2)c2c(c1)c(=O)n(C)c1c2cnn1C1CCN(C)CC1 (centres unmarked) [Compound 159, 9-[1-[[6-chloro-2-(1-methyl-1,2,4-triazol-3-yl)-3-pyridyl]amino]ethyl]-4,7-dimethyl-3-(1-methyl-4-piperidyl)pyrazolo[3,4-c]isoquinolin-5-one] |
| < 1000 | CCn1cc(-c2nc(Cl)ccc2NC(C)c2cc(C)cc3c(=O)n(C)c4c(cnn4C4CCN(C)CC4)c23)cn1 (centres unmarked) [Compound 160, 9-[1-[[6-chloro-2-(1-ethylpyrazol-4-yl)-3-pyridyl]amino]ethyl]-4,7-dimethyl-3-(1-methyl-4-piperidyl)pyrazolo[3,4-c]isoquinolin-5-one] |
| < 1000 | Cc1cc(C(C)Nc2ccc(Cl)nc2-c2nnn(C)n2)c2c(c1)c(=O)n(C)c1c2cnn1C1CCN(C)CC1 (centres unmarked) [Compound 161, 9-[1-[[6-chloro-2-(2-methyltetrazol-5-yl)-3-pyridyl]amino]ethyl]-4,7-dimethyl-3-(1-methyl-4-piperidyl)pyrazolo[3,4-c]isoquinolin-5-one] |
| < 1000 | Cc1cc(C(C)Nc2ccc(Cl)nc2-c2nnco2)c2c(c1)c(=O)n(C)c1c2cnn1C1CCN(C)CC1 (centres unmarked) [Compound 162, 9-[1-[[6-chloro-2-(1,3,4-oxadiazol-2-yl)-3-pyridyl]amino]ethyl]-4,7-dimethyl-3-(1-methyl-4-piperidyl)pyrazolo[3,4-c]isoquinolin-5-one] |
| < 1000 | CNC(=O)c1ccc(-c2nc(Cl)ccc2NC(C)c2cc(C)cc3c(=O)n(C)c4c(cnn4C4CCN(C)CC4)c23)cn1 (centres unmarked) [Compound 163, 5-[6-chloro-3-[1-[4,7-dimethyl-3-(1-methyl-4-piperidyl)-5-oxo-pyrazolo[3,4-c]isoquinolin-9-yl]ethylamino]-2-pyridyl]-N-methyl-pyridine-2-carboxamide] |
| < 1000 | Cc1cc(C(C)Nc2ccc(Cl)nc2-c2noc(=O)[nH]2)c2c(c1)c(=O)n(C)c1c2cnn1C1CCN(C)CC1 (centres unmarked) [Compound 164, 3-[6-chloro-3-[1-[4,7-dimethyl-3-(1-methyl-4-piperidyl)-5-oxo-pyrazolo[3,4-c]isoquinolin-9-yl]ethylamino]-2-pyridyl]-4H-1,2,4-oxadiazol-5-one] |
| < 1000 | Cc1cc(C(C)Nc2ccc(Cl)nc2-c2cn(C)nc2C)c2c(c1)c(=O)n(C)c1c2cnn1C1CCN(C)CC1 (centres unmarked) [Compound 165, 9-[1-[[6-chloro-2-(1,3-dimethylpyrazol-4-yl)-3-pyridyl]amino]ethyl]-4,7-dimethyl-3-(1-methyl-4-piperidyl)pyrazolo[3,4-c]isoquinolin-5-one] |
| < 1000 | Cc1cc(C(C)Nc2ccc(Cl)nc2-c2ccc(=O)n(C)c2)c2c(c1)c(=O)n(C)c1c2cnn1C1CCN(C)CC1 (centres unmarked) [Compound 166, 9-[1-[[6-chloro-2-(1-methyl-6-oxo-3-pyridyl)-3-pyridyl]amino]ethyl]-4,7-dimethyl-3-(1-methyl-4-piperidyl)pyrazolo[3,4-c]isoquinolin-5-one] |
| < 1000 | Cc1cc(C(C)Nc2ccc(Cl)nc2N2CCC(O)CC2)c2c(c1)c(=O)n(C)c1c2cnn1C1CCN(C)CC1 (centres unmarked) [Compound 167, 9-[1-[[6-chloro-2-(4-hydroxy-1-piperidyl)-3-pyridyl]amino]ethyl]-4,7-dimethyl-3-(1-methyl-4-piperidyl)pyrazolo[3,4-c]isoquinolin-5-one] |
| < 1000 | Cc1cc(C(C)Nc2ccc(Cl)nc2-c2ccncc2F)c2c(c1)c(=O)n(C)c1c2cnn1C1CCN(C)CC1 (centres unmarked) [Compound 168, 9-[1-[[6-chloro-2-(3-fluoro-4-pyridyl)-3-pyridyl]amino]ethyl]-4,7-dimethyl-3-(1-methyl-4-piperidyl)pyrazolo[3,4-c]isoquinolin-5-one] |
| < 1000 | Cc1cc(C(C)Nc2ccc(Cl)nc2-c2cccnc2)c2c(c1)c(=O)n(C)c1c2cnn1C1CCN(C)CC1 (centres unmarked) [Compound 169, 9-[1-[[6-chloro-2-(3-pyridyl)-3-pyridyl]amino]ethyl]-4,7-dimethyl-3-(1-methyl-4-piperidyl)pyrazolo[3,4-c]isoquinolin-5-one] |
| < 1000 | CNC(=O)c1ccc(-c2nc(C)ccc2NC(C)c2cc(C)cc3c(=O)n(C)c4c(cnn4C4CCN(C)CC4)c23)cn1 (centres unmarked) [Compound 170] |
| < 1000 | Cc1cc(C(C)Nc2ccc(Cl)nc2-c2ccn(C)c(=O)c2)c2c(c1)c(=O)n(C)c1c2cnn1C1CCN(C)CC1 (centres unmarked) [Compound 171, 9-[1-[[6-chloro-2-(1-methyl-2-oxo-4-pyridyl)-3-pyridyl]amino]ethyl]-4,7-dimethyl-3-(1-methyl-4-piperidyl)pyrazolo[3,4-c]isoquinolin-5-one] |
| < 1000 | Cc1cc(C(C)Nc2ccc(Cl)nc2-c2cnn(C)c2)c2c(c1)c(=O)n(C)c1c2cnn1C1CCN(CC(C)(C)O)CC1 (centres unmarked) [Compound 172, 9-[1-[[6-Chloro-2-(1-methylpyrazol-4-yl)-3-pyridyl]amino]ethyl]-3-[1-(2-hydroxy-2-methyl-propyl)-4-piperidyl]-4,7-dimethyl-pyrazolo[3,4-c]isoquinolin-5-one] |
| < 1000 | Cc1cc(C(C)Nc2ccc(Cl)nc2-c2cnn(C)c2)c2c(c1)c(=O)n(C)c1c2cnn1C1CCN(C[C@@H](C)O)CC1 (stereo partly drawn) [Compound 173, 9-[1-[[6-chloro-2-(1-methylpyrazol-4-yl)-3-pyridyl]amino]ethyl]-3-[1-[(2R)-2-hydroxypropyl]-4-piperidyl]-4,7-dimethyl-pyrazolo[3,4-c]isoquinolin-5-one] |
| < 1000 | Cc1cc(C(C)Nc2ccc(Cl)nc2-c2cnn(C)c2)c2c(c1)c(=O)n(C)c1c2cnn1C1CCN(C[C@H](C)O)CC1 (stereo partly drawn) [Compound 174, 9-[1-[[6-chloro-2-(1-methylpyrazol-4-yl)-3-pyridyl]amino]ethyl]-3-[1-[(2S)-2-hydroxypropyl]-4-piperidyl]-4,7-dimethyl-pyrazolo[3,4-c]isoquinolin-5-one] |
| < 1000 | Cc1cc(C(C)Nc2ccc(Cl)nc2-c2ncn(C)n2)c2c(c1)c(=O)n(C)c1c2cnn1C1CCN(CC(C)(C)O)CC1 (centres unmarked) [Compound 175, 9-(1-((6-chloro-2-(1-methyl-1H-1,2,4-triazol-3-yl)pyridin-3-yl)amino)ethyl)-3-(1-(2-hydroxy-2-methylpropyl)piperidin-4-yl)-4,7-dimethyl-3,4-dihydro-5H-pyrazolo[3,4-c]isoquinolin-5-one] |
| < 1000 | Cc1cc(C(C)Nc2ccc(Cl)nc2-c2ncn(C)n2)c2c(c1)c(=O)n(C)c1c2cnn1C1CCNCC1 (centres unmarked) [Compound 176, 9-(1-((6-Chloro-2-(1-methyl-1H-1,2,4-triazol-3-yl)pyridin-3-yl)amino)ethyl)-4,7-dimethyl-3-(piperidin-4-yl)-3,4-dihydro-5H-pyrazolo[3,4-c]isoquinolin-5-one] |
| < 1000 | Cc1cc(C(C)Nc2ccc(Cl)nc2-c2ncn(C)n2)c2c(c1)c(=O)n(C)c1c2cnn1C1CCN(CCO)CC1 (centres unmarked) [Compound 177, 9-[1-[[6-Chloro-2-(1-methyl-1,2,4-triazol-3-yl)-3-pyridyl]amino]ethyl]-3-[1-(2-hydroxyethyl)-4-piperidyl]-4,7-dimethyl-pyrazolo[3,4-c]isoquinolin-5-one] |
| < 1000 | Cc1cc(C(C)Nc2ccc(Cl)nc2-c2ncn(C)n2)c2c(c1)c(=O)n(C)c1c2cnn1C1CCN(Cc2nccn2C)CC1 (centres unmarked) [Compound 178, 9-(1-((6-chloro-2-(1-methyl-1H-1,2,4-triazol-3-yl)pyridin-3-yl)amino)ethyl)-4,7-dimethyl-3-(1-((1-methyl-1H-imidazol-2-yl)methyl)piperidin-4-yl)-3,4-dihydro-5H-pyrazolo[3,4-c]isoquinolin-5-one] |
| < 1000 | Cc1cc(C(C)Nc2ccc(Cl)nc2-c2ncn(C)n2)c2c(c1)c(=O)n(C)c1c2cnn1C1CCN(C2COC2)CC1 (centres unmarked) [Compound 179, 9-(1-((6-chloro-2-(1-methyl-1H-1,2,4-triazol-3-yl)pyridin-3-yl)amino)ethyl)-4,7-dimethyl-3-(1-(oxetan-3-yl)piperidin-4-yl)-3,4-dihydro-5H-pyrazolo[3,4-c]isoquinolin-5-one] |
| < 1000 | Cc1cc(C(C)Nc2ccc(Cl)nc2-c2ncn(C)n2)c2c(c1)c(=O)n(C)c1c2cnn1C1CCN(CCC#N)CC1 (centres unmarked) [Compound 180, 3-[4-[9-[1-[[6-Chloro-2-(1-methyl-1,2,4-triazol-3-yl)-3-pyridyl]amino]ethyl]-4,7-dimethyl-5-oxo-pyrazolo[3,4-c]isoquinolin-3-yl]-1-piperidyl]propanenitrile] |
| < 1000 | Cc1cc(C(C)Nc2ccc(Cl)nc2-c2ncn(C)n2)c2c(c1)c(=O)n(C)c1c2cnn1C1CCN(CC(F)F)CC1 (centres unmarked) [Compound 181, 9-(1-((6-Chloro-2-(1-methyl-1H-1,2,4-triazol-3-yl)pyridin-3-yl)amino)ethyl)-3-(1-(2,2-difluoroethyl)piperidin-4-yl)-4,7-dimethyl-3,4-dihydro-5H-pyrazolo[3,4-c]isoquinolin-5-one] |
| < 1000 | CC(=O)N1CCC(n2ncc3c4c(C(C)Nc5ccc(Cl)nc5-c5cnn(C)c5)cc(C)cc4c(=O)n(C)c32)CC1 (centres unmarked) [Compound 182, 3-(1-Acetylpiperidin-4-yl)-9-(1-((6-chloro-2-(1-methyl-1H-pyrazol-4-yl)pyridin-3-yl)amino)ethyl)-4,7-dimethyl-3,4-dihydro-5H-pyrazolo[3,4-c]isoquinolin-5-one] |
